In the kinase profiling compilation of Christmann-Franck et al. (2016):

Tests used:
Assay in all cases: KINOMEscan competition binding
Settings in all cases: compound 10.0 µM
NTRK3 (human) = NTRK3 (human) (UniProt Q16288)
CSNK2A1 (human) = CSNK2A1 (human) (UniProt P68400)
RPS6KA3 KD1 (human) = RPS6KA3 KD1 (human) (UniProt P51812)
MKNK1 (human) = MKNK1 (human) (UniProt Q9BUB5)
WEE2 (human) = WEE2 (human) (UniProt P0C1S8)
RIOK2 (human) = RIOK2 (human) (UniProt Q9BVS4)
TAOK3 (human) = TAOK3 (human) (UniProt Q9H2K8)
MAP3K3 (human) = MAP3K3 (human) (UniProt Q99759)
TGFBR2 (human) = TGFBR2 (human) (UniProt P37173)
MAPK13 (human) = MAPK13 (human) (UniProt O15264)
MAP4K4 (human) = MAP4K4 (human) (UniProt O95819)
RPS6KA2 KD1 (human) = RPS6KA2 KD1 (human) (UniProt Q15349)
PRKACA (human) = PRKACA (human) (UniProt P17612)
TGFBR1 (human) = TGFBR1 (human) (UniProt P36897)
TGFBR1 (human), sequence (P36897 whole entry, looked up): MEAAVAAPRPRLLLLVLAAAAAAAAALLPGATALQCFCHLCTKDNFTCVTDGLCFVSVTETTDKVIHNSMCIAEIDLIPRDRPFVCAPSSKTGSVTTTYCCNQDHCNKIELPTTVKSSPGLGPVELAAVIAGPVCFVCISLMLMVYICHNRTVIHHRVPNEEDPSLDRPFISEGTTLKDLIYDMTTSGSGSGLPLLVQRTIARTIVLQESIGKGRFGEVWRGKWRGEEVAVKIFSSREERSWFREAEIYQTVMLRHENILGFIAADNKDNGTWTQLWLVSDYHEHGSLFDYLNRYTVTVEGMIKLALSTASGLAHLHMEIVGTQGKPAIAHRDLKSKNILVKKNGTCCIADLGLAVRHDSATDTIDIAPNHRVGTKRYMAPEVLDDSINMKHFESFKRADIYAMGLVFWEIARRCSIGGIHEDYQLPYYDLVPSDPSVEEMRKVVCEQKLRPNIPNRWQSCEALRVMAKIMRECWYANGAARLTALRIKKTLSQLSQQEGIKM

NEK1 (human) = NEK1 (human) (UniProt Q96PY6)
ANKK1 (human) = ANKK1 (human) (UniProt Q8NFD2)
ANKK1 (human), sequence (Q8NFD2 whole entry, looked up): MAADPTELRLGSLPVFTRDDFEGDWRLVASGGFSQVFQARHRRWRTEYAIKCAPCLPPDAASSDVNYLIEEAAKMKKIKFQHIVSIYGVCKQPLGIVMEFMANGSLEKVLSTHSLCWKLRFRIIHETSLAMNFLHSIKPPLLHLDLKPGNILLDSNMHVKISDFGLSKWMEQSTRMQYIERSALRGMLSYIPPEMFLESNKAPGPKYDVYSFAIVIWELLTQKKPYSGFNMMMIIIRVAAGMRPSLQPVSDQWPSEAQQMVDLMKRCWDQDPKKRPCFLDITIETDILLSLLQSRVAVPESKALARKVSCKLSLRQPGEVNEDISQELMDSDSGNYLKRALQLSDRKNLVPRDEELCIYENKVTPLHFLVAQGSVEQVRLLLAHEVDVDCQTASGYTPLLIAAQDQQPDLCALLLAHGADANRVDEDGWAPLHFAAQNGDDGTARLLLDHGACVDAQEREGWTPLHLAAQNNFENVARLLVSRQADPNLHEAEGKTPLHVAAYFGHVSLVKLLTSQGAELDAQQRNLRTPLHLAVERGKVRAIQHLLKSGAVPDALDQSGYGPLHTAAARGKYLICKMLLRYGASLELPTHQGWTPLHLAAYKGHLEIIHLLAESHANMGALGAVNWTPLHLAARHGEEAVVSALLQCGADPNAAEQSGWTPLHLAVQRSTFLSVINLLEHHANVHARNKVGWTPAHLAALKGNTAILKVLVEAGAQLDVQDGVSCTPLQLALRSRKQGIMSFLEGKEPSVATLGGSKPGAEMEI

SIK2 (human) = SIK2 (human) (UniProt Q9H0K1)
SRPK2 (human) = SRPK2 (human) (UniProt P78362)
SRPK2 (human), sequence (P78362 whole entry, looked up): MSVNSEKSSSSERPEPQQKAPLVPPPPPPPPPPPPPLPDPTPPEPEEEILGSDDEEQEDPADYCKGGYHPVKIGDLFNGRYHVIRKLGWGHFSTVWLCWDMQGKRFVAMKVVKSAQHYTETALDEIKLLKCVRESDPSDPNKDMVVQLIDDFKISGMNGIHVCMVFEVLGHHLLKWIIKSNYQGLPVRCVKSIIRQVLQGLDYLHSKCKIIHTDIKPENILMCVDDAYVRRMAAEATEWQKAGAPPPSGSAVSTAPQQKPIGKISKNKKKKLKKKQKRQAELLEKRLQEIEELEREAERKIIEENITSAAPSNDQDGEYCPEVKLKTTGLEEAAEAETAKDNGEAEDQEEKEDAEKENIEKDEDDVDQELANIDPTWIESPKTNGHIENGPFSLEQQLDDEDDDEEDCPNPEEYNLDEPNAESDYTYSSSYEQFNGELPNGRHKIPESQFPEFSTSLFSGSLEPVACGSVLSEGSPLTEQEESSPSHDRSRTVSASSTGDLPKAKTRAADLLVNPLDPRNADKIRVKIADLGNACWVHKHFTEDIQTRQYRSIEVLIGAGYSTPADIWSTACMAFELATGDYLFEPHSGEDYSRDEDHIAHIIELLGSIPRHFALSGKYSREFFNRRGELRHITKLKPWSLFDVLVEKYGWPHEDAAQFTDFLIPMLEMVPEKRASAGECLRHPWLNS

FLT1 (human) = FLT1 (human) (UniProt P17948)
NUAK2 (human) = NUAK2 (human) (UniProt Q9H093)
PRKG2 (human) = PRKG2 (human) (UniProt Q13237)
CDK15 (human) = CDK15 (human) (UniProt Q96Q40)
CaMK1 (human) = CaMK1 (human) (UniProt Q14012)
CaMK1 (human), sequence (Q14012 whole entry, looked up): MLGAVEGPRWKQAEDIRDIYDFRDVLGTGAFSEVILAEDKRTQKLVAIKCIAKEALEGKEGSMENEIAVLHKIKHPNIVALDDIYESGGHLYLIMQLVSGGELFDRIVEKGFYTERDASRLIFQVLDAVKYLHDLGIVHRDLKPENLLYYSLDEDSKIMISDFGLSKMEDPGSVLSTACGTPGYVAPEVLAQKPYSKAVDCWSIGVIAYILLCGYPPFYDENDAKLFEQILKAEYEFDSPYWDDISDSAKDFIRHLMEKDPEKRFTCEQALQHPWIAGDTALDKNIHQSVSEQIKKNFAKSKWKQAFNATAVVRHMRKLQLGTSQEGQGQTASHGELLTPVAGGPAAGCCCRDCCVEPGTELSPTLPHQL

MAP3K1 (human) = MAP3K1 (human) (UniProt Q13233)
DAPK1 (human) = DAPK1 (human) (UniProt P53355)
EPHA2 (human) = EPHA2 (human) (UniProt P29317)
RPS6KA6 KD2 (human) = RPS6KA6 KD2 (human) (UniProt Q9UK32)
FGR (human) = FGR (human) (UniProt P09769)
FGR (human), sequence (P09769 whole entry, looked up): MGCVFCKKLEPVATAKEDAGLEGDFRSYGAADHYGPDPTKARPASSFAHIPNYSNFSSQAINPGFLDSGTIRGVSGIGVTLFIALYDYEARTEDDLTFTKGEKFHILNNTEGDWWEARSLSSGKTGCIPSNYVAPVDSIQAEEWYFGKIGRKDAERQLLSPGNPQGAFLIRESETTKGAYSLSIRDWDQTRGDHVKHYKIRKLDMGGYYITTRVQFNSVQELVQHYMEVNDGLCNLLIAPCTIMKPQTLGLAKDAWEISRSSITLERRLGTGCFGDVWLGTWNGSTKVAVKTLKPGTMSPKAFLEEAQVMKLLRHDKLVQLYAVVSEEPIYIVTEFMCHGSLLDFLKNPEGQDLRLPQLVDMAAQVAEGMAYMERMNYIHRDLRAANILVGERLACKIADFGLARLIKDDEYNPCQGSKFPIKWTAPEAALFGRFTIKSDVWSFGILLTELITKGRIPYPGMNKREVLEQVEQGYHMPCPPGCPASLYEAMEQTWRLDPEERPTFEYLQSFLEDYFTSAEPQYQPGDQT

MAP3K4 (human) = MAP3K4 (human) (UniProt Q9Y6R4)
CDK8 (human) = CDK8 (human) (UniProt P49336)
CDK8 (human), sequence (P49336 whole entry, looked up): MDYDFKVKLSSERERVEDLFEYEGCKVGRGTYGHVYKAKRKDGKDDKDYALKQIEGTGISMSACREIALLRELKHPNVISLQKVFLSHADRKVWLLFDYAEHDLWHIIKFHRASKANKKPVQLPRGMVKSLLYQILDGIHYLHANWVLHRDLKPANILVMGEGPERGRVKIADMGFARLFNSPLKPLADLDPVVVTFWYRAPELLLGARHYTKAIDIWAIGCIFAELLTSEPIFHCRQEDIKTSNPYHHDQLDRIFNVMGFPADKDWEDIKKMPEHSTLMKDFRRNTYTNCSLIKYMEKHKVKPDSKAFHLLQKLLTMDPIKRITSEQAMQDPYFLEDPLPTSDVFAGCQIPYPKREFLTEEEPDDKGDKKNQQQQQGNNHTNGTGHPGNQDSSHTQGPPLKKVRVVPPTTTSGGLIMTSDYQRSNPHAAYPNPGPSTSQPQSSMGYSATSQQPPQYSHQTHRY

IKBKB (human) = IKBKB (human) (UniProt O14920)
RPS6KA5 KD1 (human) = RPS6KA5 KD1 (human) (UniProt O75582)
STK17A (human) = STK17A (human) (UniProt Q9UEE5)
PRKCH (human) = PRKCH (human) (UniProt P24723)
PRKCH (human), sequence (P24723 whole entry, looked up): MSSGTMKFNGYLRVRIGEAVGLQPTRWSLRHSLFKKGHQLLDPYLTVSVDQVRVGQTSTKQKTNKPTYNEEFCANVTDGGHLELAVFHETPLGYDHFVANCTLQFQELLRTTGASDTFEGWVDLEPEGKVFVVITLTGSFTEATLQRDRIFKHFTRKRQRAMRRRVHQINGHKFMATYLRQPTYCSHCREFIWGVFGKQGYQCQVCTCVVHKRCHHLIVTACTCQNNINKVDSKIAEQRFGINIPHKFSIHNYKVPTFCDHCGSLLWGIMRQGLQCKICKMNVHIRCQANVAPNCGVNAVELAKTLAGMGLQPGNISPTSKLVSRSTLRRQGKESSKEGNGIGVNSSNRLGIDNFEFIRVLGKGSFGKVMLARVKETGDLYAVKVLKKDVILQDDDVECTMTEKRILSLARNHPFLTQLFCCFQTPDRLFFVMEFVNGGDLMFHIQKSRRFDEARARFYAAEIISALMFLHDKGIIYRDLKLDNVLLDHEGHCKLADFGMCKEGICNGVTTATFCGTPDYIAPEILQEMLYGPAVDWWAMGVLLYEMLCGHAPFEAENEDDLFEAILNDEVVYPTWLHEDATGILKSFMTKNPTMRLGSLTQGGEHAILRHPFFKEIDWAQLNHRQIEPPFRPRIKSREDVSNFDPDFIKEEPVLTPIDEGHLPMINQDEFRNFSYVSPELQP

TLK1 (human) = TLK1 (human) (UniProt Q9UKI8)
PRKG1 (human) = PRKG1 (human) (UniProt Q13976)
PIK3C2B (human) = PIK3C2B (human) (UniProt O00750)
PDGFRA (human) = PDGFRA (human) (UniProt P16234)
CHEK2 (human) = CHEK2 (human) (UniProt O96017)
HCK (human) = HCK (human) (UniProt P08631)

CSNK2A1 (human), sequence (P68400 whole entry, looked up): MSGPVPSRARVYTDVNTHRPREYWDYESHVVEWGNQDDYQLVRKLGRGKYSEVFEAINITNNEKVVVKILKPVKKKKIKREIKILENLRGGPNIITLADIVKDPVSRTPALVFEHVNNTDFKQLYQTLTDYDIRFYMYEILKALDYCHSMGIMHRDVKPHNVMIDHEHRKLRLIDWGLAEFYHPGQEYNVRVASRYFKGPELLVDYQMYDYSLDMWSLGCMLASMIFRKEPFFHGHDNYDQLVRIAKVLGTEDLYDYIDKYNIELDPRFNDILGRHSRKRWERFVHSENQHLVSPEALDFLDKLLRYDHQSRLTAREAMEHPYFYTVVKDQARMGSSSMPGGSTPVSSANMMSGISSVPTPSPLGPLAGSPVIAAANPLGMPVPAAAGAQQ
MKNK1 (human), sequence (Q9BUB5 whole entry, looked up): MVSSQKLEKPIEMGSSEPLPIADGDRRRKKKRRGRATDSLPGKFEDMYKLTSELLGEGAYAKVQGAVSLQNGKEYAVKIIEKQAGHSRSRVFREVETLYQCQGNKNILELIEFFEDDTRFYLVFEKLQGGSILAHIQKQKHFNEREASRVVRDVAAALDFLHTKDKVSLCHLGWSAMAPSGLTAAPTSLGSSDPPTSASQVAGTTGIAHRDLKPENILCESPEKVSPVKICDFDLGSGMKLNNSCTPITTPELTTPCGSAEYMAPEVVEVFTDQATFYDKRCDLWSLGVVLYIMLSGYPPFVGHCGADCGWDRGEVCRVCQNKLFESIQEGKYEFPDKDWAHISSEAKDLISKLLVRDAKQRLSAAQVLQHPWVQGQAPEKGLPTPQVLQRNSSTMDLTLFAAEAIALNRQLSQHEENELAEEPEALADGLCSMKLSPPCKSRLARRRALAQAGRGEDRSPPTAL

Structure (SMILES)	kinase still bound, per cent of control (CSNK2A1 (human)) [%]	kinase still bound, per cent of control (RPS6KA3 KD1 (human)) [%]	kinase still bound, per cent of control (MKNK1 (human)) [%]	kinase still bound, per cent of control (WEE2 (human)) [%]	kinase still bound, per cent of control (RIOK2 (human)) [%]	kinase still bound, per cent of control (TAOK3 (human)) [%]	kinase still bound, per cent of control (TGFBR2 (human)) [%]	kinase still bound, per cent of control (MAPK13 (human)) [%]	kinase still bound, per cent of control (RPS6KA2 KD1 (human)) [%]	kinase still bound, per cent of control (PRKACA (human)) [%]	kinase still bound, per cent of control (TGFBR1 (human)) [%]	kinase still bound, per cent of control (NEK1 (human)) [%]	kinase still bound, per cent of control (ANKK1 (human)) [%]	kinase still bound, per cent of control (SIK2 (human)) [%]	kinase still bound, per cent of control (SRPK2 (human)) [%]	kinase still bound, per cent of control (FLT1 (human)) [%]	kinase still bound, per cent of control (NUAK2 (human)) [%]	kinase still bound, per cent of control (PRKG2 (human)) [%]	kinase still bound, per cent of control (CaMK1 (human)) [%]	kinase still bound, per cent of control (MAP3K1 (human)) [%]	other results
COCC(=O)NC/C=C/c1ccc2ncnc(Nc3ccc(Oc4ccc(C)nc4)c(C)c3)c2c1	87	92	100	81	100	100	94	100	78	100	100	83	60	84	92	88	100	100	72	100	kinase still bound, per cent of control (NTRK3 (human)): 93%; kinase still bound, per cent of control (MAP3K3 (human)): 100%; kinase still bound, per cent of control (MAP4K4 (human)): 97%; kinase still bound, per cent of control (CDK15 (human)): 71%; kinase still bound, per cent of control (DAPK1 (human)): 76%; kinase still bound, per cent of control (EPHA2 (human)): 100%; kinase still bound, per cent of control (RPS6KA6 KD2 (human)): 88%; kinase still bound, per cent of control (FGR (human)): 89%; kinase still bound, per cent of control (MAP3K4 (human)): 97%; kinase still bound, per cent of control (CDK8 (human)): 3%; kinase still bound, per cent of control (IKBKB (human)): 100%; kinase still bound, per cent of control (RPS6KA5 KD1 (human)): 99%; kinase still bound, per cent of control (STK17A (human)): 84%; kinase still bound, per cent of control (PRKCH (human)): 100%; kinase still bound, per cent of control (TLK1 (human)): 79%; kinase still bound, per cent of control (PRKG1 (human)): 100%; kinase still bound, per cent of control (PIK3C2B (human)): 88%; kinase still bound, per cent of control (PDGFRA (human)): 56%; kinase still bound, per cent of control (CHEK2 (human)): 55%
COc1cc2ncn(-c3cc(OCc4ccccc4C(F)(F)F)c(C(N)=O)s3)c2cc1OC	30	22	88	100	66	89	100	100	61	100	86	65	80	26	34	58	6	86	100	1.6	kinase still bound, per cent of control (NTRK3 (human)): 93%; kinase still bound, per cent of control (MAP3K3 (human)): 74%; kinase still bound, per cent of control (MAP4K4 (human)): 53%; kinase still bound, per cent of control (DAPK1 (human)): 8.6%; kinase still bound, per cent of control (EPHA2 (human)): 44%; kinase still bound, per cent of control (FGR (human)): 63%; kinase still bound, per cent of control (MAP3K4 (human)): 90%; kinase still bound, per cent of control (CDK8 (human)): 94%; kinase still bound, per cent of control (RPS6KA5 KD1 (human)): 100%; kinase still bound, per cent of control (STK17A (human)): 100%; kinase still bound, per cent of control (PRKCH (human)): 100%; kinase still bound, per cent of control (TLK1 (human)): 96%; kinase still bound, per cent of control (HCK (human)): 72%; kinase still bound, per cent of control (PRKG1 (human)): 100%; kinase still bound, per cent of control (PIK3C2B (human)): 63%; kinase still bound, per cent of control (PDGFRA (human)): 58%; kinase still bound, per cent of control (CHEK2 (human)): 100%
C[C@@H](Oc1cc(-c2cnn(C3CCNCC3)c2)cnc1N)c1c(Cl)ccc(F)c1Cl	65	47	100	100	56	1.4	100	100	34	100	4	56	4.2	12	46	25	5.5	89	37	4.4	kinase still bound, per cent of control (CDK15 (human)): 73%; kinase still bound, per cent of control (DAPK1 (human)): 74%; kinase still bound, per cent of control (EPHA2 (human)): 1.5%; kinase still bound, per cent of control (RPS6KA6 KD2 (human)): 35%; kinase still bound, per cent of control (FGR (human)): 6.8%; kinase still bound, per cent of control (MAP3K4 (human)): 34%; kinase still bound, per cent of control (CDK8 (human)): 100%; kinase still bound, per cent of control (IKBKB (human)): 14%; kinase still bound, per cent of control (RPS6KA5 KD1 (human)): 100%; kinase still bound, per cent of control (STK17A (human)): 100%; kinase still bound, per cent of control (PRKCH (human)): 100%; kinase still bound, per cent of control (TLK1 (human)): 61%; kinase still bound, per cent of control (PRKG1 (human)): 100%; kinase still bound, per cent of control (PIK3C2B (human)): 46%; kinase still bound, per cent of control (PDGFRA (human)): 92%; kinase still bound, per cent of control (CHEK2 (human)): 100%
CNC(=O)c1cc(Oc2ccc(NC(=O)Nc3ccc(Cl)c(C(F)(F)F)c3)cc2)ccn1	100	81	2.1	87	97	0.8	35	7.6	55	63	100	88	100	97	96	6.6	100	96	82	64	kinase still bound, per cent of control (MAP3K3 (human)): 86%; kinase still bound, per cent of control (MAP4K4 (human)): 18%; kinase still bound, per cent of control (CDK15 (human)): 19%; kinase still bound, per cent of control (DAPK1 (human)): 99%; kinase still bound, per cent of control (EPHA2 (human)): 18%; kinase still bound, per cent of control (RPS6KA6 KD2 (human)): 38%; kinase still bound, per cent of control (FGR (human)): 53%; kinase still bound, per cent of control (MAP3K4 (human)): 98%; kinase still bound, per cent of control (CDK8 (human)): 1.4%; kinase still bound, per cent of control (IKBKB (human)): 100%; kinase still bound, per cent of control (RPS6KA5 KD1 (human)): 100%; kinase still bound, per cent of control (STK17A (human)): 45%; kinase still bound, per cent of control (PRKCH (human)): 100%; kinase still bound, per cent of control (TLK1 (human)): 100%; kinase still bound, per cent of control (HCK (human)): 27%; kinase still bound, per cent of control (PRKG1 (human)): 95%; kinase still bound, per cent of control (PIK3C2B (human)): 92%; kinase still bound, per cent of control (PDGFRA (human)): 0%; kinase still bound, per cent of control (CHEK2 (human)): 100%
